The values that follow come from patent publication US20160075653A1, “NEMATICIDAL N-(PHENYLCYCLOALKYL)CARBOXAMIDES AND N-(PHENYLCYCLOALKYL)THIOCARBOXAMIDES” (BAYER CROPSCIENCE AKTIENGESELLSCHAFT, priority 2013, published 2016).

The nature of data set [1]: Measurement of log P values by HPLC on reversed phase columns (methods [a] pH 2.3, [b] pH 2.7, [c] pH 7.8). Format: physicochemical. Particulars: for chromatographic logP: reversed phase HPLC columns. Summed up: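 Determined per EEC Directive 79/831 Annex V.A8 by reversed-phase HPLC, 10-95% acetonitrile gradient: [a] pH 2.3, 0.1% phosphoric acid; [b] LC-MS, pH 2.7, 0.1% formic acid; [c] LC-MS, pH 7.8, 0.001 molar ammonium hydrogen carbonate. Calibrated with C3-C16 alkan-2-ones by retention-time interpolation.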

Data set [2] deals with Meloidogyne incognita. Put plainly: Meloidogyne incognita test (MELGIN), gall formation on salad seedlings. The data set is classed as in vivo. Particulars: application rate 20 ppm, after 14 days. As to the method:
Meioidovnve incomita—Test (MELGIN)
Solvent: 125.0 parts by weight of acetone
To produce a suitable preparation of active compound, 1 part by weight of active compound is mixed with the stated amount of solvent, and the concentrate is diluted with water to the desired concentration.
Vessels are filled with sand, a solution of the active ingredient, a suspension containing eggs and larvae of the southern root-knot nematode (Meloidogyne incognita) and salad seeds. The salad seeds germinate and the seedlings grow. Galls develop in the roots.
After 14 days the nematicidal activity is determined on the basis of the percentage of gall formation. 100% means that no galls were found; 0% means the number of galls found on the roots of the treated plants was equal to that in untreated control plants.

The mark [3] stands for this setting: HPLC on reversed phase columns, method [b], pH 2.7.
Where [4] appears, read: HPLC reversed phase, method [b] (pH 2.7).
[5] abbreviates: pH 2.7, HPLC on reversed phase columns, method [b] (pH 2.7), read-out: logP.

The structures appear in SMILES notation. Like-named read-outs stand apart in the source and are kept apart here.

Turning to `CSc1ccccc1C(=O)N[C@@H]1CCC[C@@H]1c1ccc(F)c(F)c1` (relative stereo) [Compound 82], the logP in data set [1] (setting [3]) is 3.35^[b]. Also, the “nematicidal activity (percentage of gall formation; 100% = no galls)” value in data set [2] turned out to be 90%.
For the compound `CCCOc1ccccc1C(=O)N[C@@H]1CCC[C@@H]1c1ccc(F)c(F)c1` (relative stereo) [Compound 86], the logP in data set [1] (setting [3]) is 4.19^[b]. Moreover, the “nematicidal activity (percentage of gall formation; 100% = no galls)” value in data set [2] is 90%.
The corresponding values for `CCOc1ccccc1C(=O)N[C@@H]1CCC[C@@H]1c1ccc(F)c(F)c1` (relative stereo) [Compound 115] are 3.80^[b] and 90%.
For the compound `O=C(N[C@@H]1CC[C@@H]1c1ccccc1Cl)c1ncccc1Cl` (relative stereo) [Compound 247, cis-3-chloro-N-[2-(2-chlorophenyl)cyclobutyl]pyridine-2-carboxamide], the chromatographic logP in data set [1] (HPLC-MS, method letter not given, read-out: log P) stood at 2.79; in data set [1] (pH 2.7, HPLC reversed phase, method [b] (pH 2.7), read-out: logP) it was 2.79. Moreover, the “nematicidal activity (percentage of gall formation; 100% = no galls)” value in data set [2] is 100%.
Regarding `O=C(N[C@@H]1CC[C@@H]1c1ccccc1Cl)c1ccccc1Cl` (relative stereo) [Compound 248], the logP in data set [1] (setting [4]) was 3.08^[b]. The “nematicidal activity (percentage of gall formation; 100% = no galls)” value in data set [2] is on record as 90%.
The corresponding values for `O=C(N[C@@H]1CC[C@@H]1c1ccccc1Cl)c1ccccc1I` (relative stereo) [Compound 250] are 3.23^[b] and 100%.
Take `O=C(N[C@@H]1CC[C@@H]1c1ccccc1Cl)c1ccccc1C(F)(F)F` (relative stereo) [Compound 251]: the logP in data set [1] (setting [4]) was 3.23^[b]. In data set [2], the “nematicidal activity (percentage of gall formation; 100% = no galls)” value is listed as 100%.
The corresponding values for `O=C(N[C@@H]1CC[C@@H]1c1ccccc1Cl)c1c(F)cccc1F` (relative stereo) [Compound 252] are 2.86^[b] and 100%.
Regarding `O=C(N[C@@H]1CC[C@@H]1c1ccccc1Cl)c1ccccc1Br` (relative stereo) [Compound 253], the logP in data set [1] (setting [4]) is 3.18^[b]. For the same compound, the “nematicidal activity (percentage of gall formation; 100% = no galls)” value in data set [2] came out at 100%.
For `O=C(N[C@@H]1CC[C@@H]1c1ccccc1Cl)c1cccnc1C(F)(F)F` (relative stereo) [Compound 254], in that order: 2.69^[b] and 90%.
As to `O=C(N[C@@H]1CC[C@H]1c1ccc(Cl)cc1Cl)c1ccccc1Cl` (relative stereo) [Compound 256], the logP in data set [1] (setting [4]) is 3.90^[b]. For the same compound, in data set [2], the “nematicidal activity (percentage of gall formation; 100% = no galls)” value came out at 90%.
For `O=C(N[C@@H]1CC[C@@H]1c1ccc(Cl)cc1Cl)c1ncccc1Cl` (relative stereo) [Compound 260], in that order: 3.28^[b] and 100%.
Turning to `O=C(N[C@@H]1CC[C@@H]1c1ccc(Cl)cc1Cl)c1ccccc1Cl` (relative stereo) [Compound 261], the logP in data set [1] (setting [4]) was 3.45^[b]. Besides, the “nematicidal activity (percentage of gall formation; 100% = no galls)” value in data set [2] was found to be 100%.
The corresponding values for `O=C(N[C@@H]1CC[C@H]1c1ccc(F)cc1C(F)(F)F)c1cccnc1C(F)(F)F` (relative stereo) [Compound 487] are 3.20^[b] and 90%.
The corresponding values for `O=C(N[C@@H]1CC[C@@H]1c1ccc(F)cc1C(F)(F)F)c1cccnc1C(F)(F)F` (relative stereo) [Compound 489] are 3.02^[b] and 100%.
The corresponding values for `O=C(N[C@@H]1CC[C@@H]1c1ccc(F)cc1C(F)(F)F)c1ccccc1Br` (relative stereo) [Compound 491] are 3.39^[b] and 100%.
In the case of `O=C(N[C@@H]1CC[C@@H]1c1ccc(F)cc1C(F)(F)F)c1c(F)cccc1F` (relative stereo) [Compound 493], the logP in data set [1] (setting [4]) is 3.18^[b]. Moreover, the “nematicidal activity (percentage of gall formation; 100% = no galls)” value in data set [2] is given as 100%.
Turning to `O=C(N[C@@H]1CC[C@H]1c1ccc(F)cc1C(F)(F)F)c1ccccc1C(F)(F)F` (relative stereo) [Compound 494], in data set [1] (setting [4]), the logP is 3.72^[b]. Further, the “nematicidal activity (percentage of gall formation; 100% = no galls)” value in data set [2] came to 90%.
Consider `O=C(N[C@@H]1CC[C@@H]1c1ccc(F)cc1C(F)(F)F)c1ccccc1C(F)(F)F` (relative stereo) [Compound 495], for which, in data set [1] (setting [4]), the logP was 3.51^[b]. Also, in data set [2], the “nematicidal activity (percentage of gall formation; 100% = no galls)” value was found to be 100%.
The corresponding values for `O=C(N[C@@H]1CC[C@H]1c1ccc(F)cc1C(F)(F)F)c1ccccc1Br` (relative stereo) [Compound 501] are 3.64^[b] and 100%.
For `O=C(N[C@@H]1CC[C@@H]1c1ccc(F)cc1C(F)(F)F)c1ccccc1I` (relative stereo) [Compound 503], in that order: 3.50^[b] and 100%.
For `O=C(N[C@@H]1CC[C@@H]1c1ccc(F)cc1C(F)(F)F)c1ccccc1` (relative stereo) [Compound 505], in that order: 2.97^[b] and 90%.
Regarding `O=C(N[C@@H]1CC[C@@H]1c1ccc(F)cc1C(F)(F)F)c1ccccc1Cl` (relative stereo) [Compound 509], the logP in data set [1] (setting [4]) is 3.34^[b]. Also, the “nematicidal activity (percentage of gall formation; 100% = no galls)” value in data set [2] stood at 100%.
`O=C(N[C@@H]1CC[C@@H]1c1ccc(F)cc1C(F)(F)F)c1cccnc1Cl` (relative stereo) [Compound 515]: in data set [1] (setting [4]), the logP was 2.73^[b]. The “nematicidal activity (percentage of gall formation; 100% = no galls)” value in data set [2] is given as 100%.
As to `O=C(NC1CC1c1ccccc1)c1cccnc1C(F)F` (stereo not shown) [Compound 225], the “nematicidal activity (percentage of gall formation; 100% = no galls)” value in data set [2] is reported as 90%.
Consider `O=C(N[C@@H]1CC[C@H]1c1ccc(Cl)cc1C(F)(F)F)c1cccnc1` [Example 732], for which the chromatographic logP in data set [1] (setting [5]) amounted to 2.74.
Same read-out and setting: to `O=C(N[C@@H]1CC[C@@H]1c1c(Cl)cccc1Cl)c1ccccc1[N+](=O)[O-]` [Example 733] belongs 3.08; to `O=C(N[C@@H]1CC[C@@H]1c1c(Cl)cccc1Cl)c1nccnc1Cl` [Example 734], 3.07; to `O=C(N[C@@H]1CC[C@@H]1c1c(Cl)cccc1Cl)c1ccccc1Br` [Example 735], 3.6.
Still for that read-out and setting: in the case of `O=C(N[C@@H]1CC[C@@H]1c1c(Cl)cccc1Cl)c1ccccc1C(F)(F)F` [Example 736] it was 3.71; in that of `O=C(N[C@@H]1CC[C@@H]1c1c(Cl)cccc1Cl)c1ccccc1I` [Example 737], 3.72; in that of `O=C(N[C@@H]1CC[C@@H]1c1c(Cl)cccc1Cl)c1ccc(Cl)cc1` [Example 738], 3.36.
The same measure, in the same setting: to `O=C(N[C@@H]1CC[C@@H]1c1ccc(Cl)cc1C(F)(F)F)c1cccnc1Cl` [Example 739] belongs 3.09; to `Cc1nc(C(F)(F)F)c(C(=O)N[C@@H]2CC[C@@H]2c2c(Cl)cccc2Cl)s1` [Example 740], 3.6.
Turning to `O=C(N[C@@H]1CC[C@@H]1c1c(Cl)cccc1Cl)c1ccc(Cl)cc1Cl` [Example 741], the chromatographic logP in data set [1] (setting [5]) came to 4.1.
For the compound `O=C(N[C@@H]1CC[C@@H]1c1c(Cl)cccc1Cl)c1ccccc1Cl` [Example 742], in data set [1] (setting [5]), the chromatographic logP came to 3.56.
As for `O=C(N[C@@H]1CC[C@@H]1c1c(Cl)cccc1Cl)c1ncccc1Cl` [Example 743], the chromatographic logP in data set [1] (setting [5]) came to 3.32.
The same measure, in the same setting: in the case of `O=C(N[C@@H]1CC[C@@H]1c1c(Cl)cccc1Cl)c1ncc(C(F)(F)F)cc1Cl` [Example 744] it was 4.28; in that of `O=C(N[C@@H]1CC[C@@H]1c1c(Cl)cccc1Cl)c1sccc1I` [Example 745], 4.21; in that of `O=C(N[C@@H]1CC[C@@H]1c1c(Cl)cccc1Cl)c1cccnc1C(F)(F)F` [Example 746], 2.95.
`Cc1nc(C(F)(F)F)c(C(=O)N[C@@H]2CCC[C@@H]2c2ccc(C(F)(F)F)cc2)s1` [Example 747]: the chromatographic logP in data set [1] (setting [5]) came to 3.71.
Same read-out and setting: to `O=C(N[C@@H]1CCC[C@@H]1c1ccc(C(F)(F)F)cc1)c1nccnc1Cl` [Example 748] belongs 3.2.
On the same count and under the same terms, to `O=C(N[C@@H]1C[C@]1(F)c1ccc(Cl)cc1)c1sccc1I` [Example 749] belongs 3.15; to `O=C(N[C@@H]1C[C@]1(F)c1ccc(Cl)cc1)c1ccccc1Br` [Example 751], 2.84.
Still for that read-out and setting: in the case of `O=C(N[C@@H]1C[C@]1(F)c1ccc(Cl)cc1)c1ccccc1Cl` [Example 752] it was 2.78; in that of `O=C(N[C@@H]1C[C@]1(F)c1ccc(Cl)cc1)c1ccccc1I` [Example 753], 2.98.
On to `O=C(NC1CC1(F)c1ccc(Cl)cc1)c1ccccc1C(F)(F)F` (stereo not shown) [Example 754], for which, in data set [1] (setting [3]), the logP is 3.24^[b].
Still for that read-out and setting: in the case of `O=C(NC1CC1(F)c1ccc(Cl)cc1)c1ccccc1C(F)(F)F` (stereo not shown) [Example 755] it was 3.03^[b].
